Source: publication PMC3928003 (Cardiovascular Research, 2013)

Biological target: T1, 5-lipoxygenase (5-LO) (Homo sapiens, UniProt P09917)
T1 sequence (P09917 1-674): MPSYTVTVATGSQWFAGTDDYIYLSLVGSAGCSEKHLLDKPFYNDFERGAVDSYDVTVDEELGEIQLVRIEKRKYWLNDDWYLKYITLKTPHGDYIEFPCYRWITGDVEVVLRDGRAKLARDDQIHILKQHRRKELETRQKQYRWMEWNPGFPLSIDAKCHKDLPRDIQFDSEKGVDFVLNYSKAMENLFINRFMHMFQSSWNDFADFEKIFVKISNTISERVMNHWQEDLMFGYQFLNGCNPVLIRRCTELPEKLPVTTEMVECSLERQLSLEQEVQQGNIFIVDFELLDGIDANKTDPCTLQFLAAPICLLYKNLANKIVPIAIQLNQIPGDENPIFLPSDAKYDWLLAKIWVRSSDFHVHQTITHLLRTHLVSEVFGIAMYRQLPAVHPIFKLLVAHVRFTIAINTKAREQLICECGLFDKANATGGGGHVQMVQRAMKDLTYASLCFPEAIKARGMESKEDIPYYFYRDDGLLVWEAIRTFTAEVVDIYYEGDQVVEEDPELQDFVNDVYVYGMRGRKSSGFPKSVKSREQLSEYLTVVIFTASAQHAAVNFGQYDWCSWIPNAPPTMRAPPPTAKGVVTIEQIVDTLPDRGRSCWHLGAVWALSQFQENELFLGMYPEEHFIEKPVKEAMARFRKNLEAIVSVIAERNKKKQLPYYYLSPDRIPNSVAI
Assay: cell-free 5-LO activity assay with arachidonic acid, products by HPLC
Assay type: biochemical

O=C1Nc2ccccc2/C1=C1/Nc2ccccc2/C1=N\O [I3MO, Indirubin-3′-monoxime]
IC50: 7.8 to 10 µM
